Measured values as given in US20090202573A1, “POLYMERIC CONJUGATES CONTAINING POSITIVELY-CHARGED MOIETIES” (ENZON PHARMACEUTICALS, INC., priority 2006, published 2009).
d = 2'-deoxy (DNA); r = 2'-OH (RNA)

Experiments:
BCL2 mRNA = BCL2 mRNA downregulation, RT-PCR, A431 cells (Example 66); type: cell-based, human; settings: without transfection agent, FIG. 17
Procedure: This study was conducted to determine whether the oligonucleotides uptaken by cancer cells downregulate specific gene expression involved in cancer. A431 cells were transfected with native oligonucleotides and compound 23a-I-R1 without transfection agent. The positively charged polymer conjugate contains TAT and BCL2 siRNA.

Survivin mRNA [1] = test: Survivin mRNA downregulation in A549 cell model, RT-PCR (Examples 67, 69, 70, 71, 71 bis); type: cell-based, human
Procedure: This study was conducted to determine the effects of the positively charged polymers on Survivin mRNA expression. A549 human lung cells were transfected with each of compounds 33b-I-R4, 33b-I-R5 and 33a-I-R3 in concentrations of 1000 nM, 200 nM, 40 nM, 8 nM and 1.6 nM. […] Compound 33a-I-R3 ([RGD-TATC-S—S]7-^20K8arm PEG-SS-antisense Survivin LNA) includes the TAT peptide and antisense Survivin LNA. The Survivin mRNA expression in the A549 cells treated with each of the compounds was measured by RT-PCR one day after the treatment.
A549 human lung cancer cells were transfected with each of compound 33a-I-R2 and the naive antisense Survivin LNA. Compound 33a-I-R2 ([(Arg)9C—S—S]7-^20K8arm PEG-S—S-antisense Survivin LNA) includes seven polymer arm terminals connected to C(Arg)9 and one arm terminal connected to the antisense Survivin LNA via the intracellular releasable disulfide bond. The naive oligonucleotides (antisense Survivin LNA) were also transfected with the transfection agent lipofectamine.
A549 cells were transfected with each of compound 59 and the antisense Survivin LNA dimer. The dimer of the antisense Survivin LNA modified with a C6—SH tail (antisense Survivin LNA-C6—S—S—C6-antisense Survivin LNA) was also transfected with the transfection agent. Compound 59 contains a hydrazone-based releasable linker.
This study was conducted to determine whether the positively charged polymers containing a targeting agent is as effective as the positively charged polymers without a targeting agent and thus the polymers containing the targeting agent can be utilized for targeted delivery. A549 cells were transfected with each of compounds 33a-I-R1 (TATC-S—S)7-^20K8arm PEG-S—S-antisense Survivin LNA) and 33a-I-R3 ([RGD-TATC-S—S]7-^20K8arm PEG-S—S-antisense Survivin LNA). In compounds 33a-I-R1 and 33a-I-R3, seven polymer arm terminals are connected to C-TAT and C-TAT-RGD, respectively. The cells were also transfected with the antisense Survivin LNA modified with a SH—C6 tail with or without the transfection agent. […] This feature of the positively charged polymers is beneficial to target agent directed delivery of oligonucleotide therapeutics.
A549 human lung cancer cells were transfected with each of compound 33a-I-R1 (TATC-S—S)7-^20K8arm PEG-S—S-antisense Survivin LNA), compound 33a-II-R1 (TATC-S—S)7-^20K8arm PEG-S—S-scrambled Survivin LNA) and the native antisense Survivin LNA. Compound […] corresponds to compound […] except in that it includes mismatching nucleotides within the antisense Survivin LNA (scrambled Survivin LNA: 5′-s^mCsGs^mCsAsgsaststsasgsasasAs^mCs^mCst-3′). The naive antisense Survivin LNA was also transfected with the transfection agent.

Survivin mRNA [2] = test: Survivin mRNA downregulation in DU145 cell model (prostate cancer) (Example 68); type: cell-based; settings: Example 68: DU145 cells, FIG. 19
Excerpt: DU145 cells were transfected with the same compounds used in Example 67.

[3] = Example 71: A549 cells, polymers with or without targeting agent (RGD), FIG. 22

native Bcl2 siRNA: unconjugated antisense Bcl2 siRNA (SEQ ID NOs: 4 and 5) (chain 1 GCAUGCGGCCUCUGUUUGATT; chain 2 UCAAACAGAGGCCGCAUGCTT; sugars from the 5' end r19 d2, backbone not given here)
BCL2 mRNA expression (BCL2 mRNA): downregulated BCL2 mRNA expression dose-dependently

(TATC-S—S)7-^20K8arm PEG-S—S-antisense Survivin LNA [Compound 33a-I-R1]
Survivin mRNA expression (Survivin mRNA [1]; [3]): downregulated Survivin mRNA expression | Specific inhibition of Survivin mRNA expression (Survivin mRNA [1]; second Example 71: A549 cells, antisense versus scrambled (mismatching) Survivin LNA, FIG. 23): significantly inhibited Survivin mRNA expression | Survivin mRNA expression (Survivin mRNA [2]): similarly observed

[RGD-TATC-S—S]7-^20K8arm PEG-SS-antisense Survivin LNA [Compound 33a-I-R3]
Survivin mRNA expression (Survivin mRNA [1]; Example 67: A549 cells, 1000 nM to 1.6 nM, RT-PCR one day after treatment, without transfection agent, FIG. 18): significantly downregulated Survivin mRNA expression | dose dependence of Survivin mRNA downregulation (Survivin mRNA [1]; Example 67: A549 cells, 1000, 200, 40, 8 and 1.6 nM, FIG. 18): dose-dependent | Survivin mRNA expression (Survivin mRNA [1]; [3]): downregulated Survivin mRNA expression | Survivin mRNA expression (Survivin mRNA [2]): significant down-regulation of Survivin mRNA expression

[(Arg)9C—S—S]7-^20K8arm PEG-S—S-antisense Survivin LNA [Compound 33a-I-R2]
Survivin mRNA expression (Survivin mRNA [1]; Example 69: A549 cells, without the transfection agent, FIG. 20): significantly downregulated Survivin mRNA expression
